We go through six molecules from patent publication US20080003438A1, “Heterocyclic siloxanes for use in biocidal coatings and materials” (Auburn University, priority 2002, published 2008).

SMILES strings stand for the structures.

A short description of series [1]: Chlorine loading of coated, chlorinated surfaces by iodometric/thiosulfate titration. The format is physicochemical. Conditions: for chlorine content of charged textile: oven-cured; for chlorine loading on coated cotton swatches: chlorinated with 5% CLOROX at ambient temperature for 45 minutes. Here is the method:
Swatches of Style 400 Bleached 100% Cotton Print Cloth (Testfabrics, Inc.) were treated with 3-triethoxysilylpropyl-5,5-dimethylhydantoin, prepared as described in Example 1, in the following manner. A treatment bath was prepared containing 5.0 g of 3-triethoxysilylpropyl-5,5-dimethylhydantoin, 3.0 g of potassium thiocyanate, 50 mL of ethanol, and 50 mL of water. After 1 hour of equilibration of the bath mixture, the cotton swatches were soaked in the bath for 10 min. After partially drying in air at ambient temperature, the swatches were cured for 1 hour at 95° C. The swatches were then soaked in a 0.5% liquid detergent solution for 15 min, rinsed with tap water, and allowed to dry in air at ambient temperature. […] The swatches were stored in a vacuum desiccator until use.
The siloxane polymer described above was coated onto 100% cotton fabric. This was accomplished by soaking swatches of the material for about 2 minutes at ambient temperature in a bath containing 5 g of the polysiloxane, 70 mL of ethanol, and 40 mL of water. The swatches were cured at 130° C. in air for 20 minutes, then soaked in 1.5% liquid detergent for 15 minutes at ambient temperature, and then rinsed thoroughly with water. […] An iodometric/thiosulfate titration indicated a chlorine loading on the cotton material of about 0.42%.
Finally, a wash test was performed on swatches of cotton containing the monomer 3-triethoxysilylpropyl-5,5-dimethylhydantoin coating and the polysiloxane coating, each chlorinated and unchlorinated, for comparison purposes. Two treatment baths were prepared, one containing an 8% solution of 3-triethoxysilylpropyl-5,5-dimethylhydantoin in a 50% solution of ethanol in water, the other containing an 8% solution of siloxane polymer prepared as described above in a 66.7% solution of ethanol in water. Identical cotton swatches were soaked in the two baths for 2.5 minutes at ambient temperature, cured in air at 130° C. for 20 minutes, soaked in 1.5% liquid detergent at ambient temperature for 15 minutes, rinsed thoroughly with water, and dried in air at 50° C. for 30 minutes. Then one-half of the swatches of each type were chlorinated by soaking them in 5% CLOROX at ambient temperature for 45 minutes. These chlorinated samples were rinsed thoroughly with water and dried in air at 50° C. for 30 minutes to remove all occluded free chlorine. Iodometric/thiosulfate titrations were performed on representative samples to determine initial chlorine loadings. The average chlorine loading for the silane monomer-coated samples was 0.61%; for the siloxane polymer-coated samples, the average chlorine loading was 0.40%. Then all types of coated swatches were subjected to laundry washing cycles using AATCC Test Method 61 (Test 2A Procedure). Samples were evaluated after 5, 10, and 50 washing cycles for retention of the coatings. Those samples not chlorinated before washing were chlorinated by the procedure described above in order to assess how much chlorine could be loaded after variable numbers of washing cycles. Those chlorinated before washing were divided into two groups with half being assessed for chlorine loading without rechlorination, the other half being rechlorinated and then assessed for chlorine loading. Three observations are clearly evident from the data in Table 3. First, both the silane and the siloxane coatings are partially lost upon successive washings. Second, prechlorination reduces the rate of loss, probably due to increasing the hydrophobicity of the surface, thus reducing the rate of hydrolysis loss of the siloxane coatings. Third, the siloxane coating, which is not chlorinated to as high a level as the silane one upon initial chlorination, is lost at a slower rate than is the silane coating. For all of the coatings, at least partial biocidal efficacy would be regenerated upon rechlorination after 50 washing cycles. […]

A further series deals with Staphylococcus aureus. The series is described as follows: Antimicrobial activity of cotton textiles coated with acyclic silane. In kind it is cell-based. Here is the method: Cotton textiles were coated with 3-aminopropyltriethoxysilane by exposure to aqueous solutions of 5% of this compound, followed by curing the woven fabric at 100° C. for 60 minutes in air, or by use of a household dryer on high setting for 30 minutes. Swatches of the treated fabric were charged with chlorine, and then challenged with suspensions of Staphylococcus aureus; enumeration of recovery was accomplished using the methods described in Example 11. Chlorine contents of charged oven-cured textiles ranged up to 5000 ppm (5 mg per g of material) immediately after drying, but diminished to 2300 ppm in approximately 14 days at 20° C. Chlorine concentrations in dryer-prepared swatches were never higher than 2500 ppm, even when fresh. Reductions of viable organisms in freshly chlorinated oven-dried swatches were in excess of 4 logs, after as little as 15 minutes of contact. Longer contact times (30 minutes) were required to reach this level of efficacy in dryer-cured textiles.

Series [2] concerns S. aureus bacteria (ATCC 6538). The series is described as follows: Biocidal efficacy of chlorinated silane compound in water solution. In kind it is cell-based. Conditions: 100.8 mg/L solution, 11.02 mg/L total chlorine, chlorine-demand-free water pH 7, all contact times 5, 10, 30, 60 min, ambient temperature. Here is the method: A 100.8 mg/L solution of the chlorinated silane compound, prepared as described above, containing 11.02 mg/L total chlorine content in chlorine-demand-free water at pH 7 was challenged with S. aureus bacteria (ATCC 6538) for contact times of 5, 10, 30, and 60 min at ambient temperature. Following the contact with the bacteria, further disinfectant action was quenched by adding 0.02 N sodium thiosulfate. Serial dilutions were then plated onto trypticase soy agar, and colony counts were made after 48 hours of incubation at 37° C. No growth was detected on the plates indicating a complete inactivation (>4.9 logs) at all of the contact times. Thus the chlorinated silane compound is biocidal under the conditions tested. Neither lower contact times, nor lower concentrations, were evaluated.

The test system of the next series is S. aureus (ATCC 6538). Nature of the series: Challenge of treated cotton swatches, modified AATCC Method 100. The format is cell-based. Conditions: treated cotton swatches, at 30 minutes. Here is the method:
(§1) Treated cotton swatches were challenged with S. aureus (ATCC 6538) and Escherichia coli (ATCC 2666) at a concentration of between 10^8 and 10^9 CFU/mL in pH 7 phosphate buffer solution using a modified version of AATCC Method 100. The swatches were quenched with 0.02 N sodium thiosulfate solution at contact times of 10, 30, 60, and 120 min. Serial dilutions of the solutions contacting the swatches were plated on nutrient agar, incubated for 48 hours at 37° C., and plate counts were made to determine the presence of viable bacteria. […] The control sample (cotton soaked in 10% bleach, rinsed, and dried) gave only a 0.4 log reduction at 30 minutes. […] The control sample (cotton soaked in 10% bleach, rinsed, and dried) gave a 0 log reduction at 120 minutes.

For series [3], the system named is Escherichia coli (ATCC 2666). The series is described as above. In kind it is cell-based. Conditions: contact time interval 60-120 minutes. Here is the method: as §1

For the molecule `CCO[Si](CCCNCCN1C(=O)NC(C)(C)C1=O)(OCC)OCC.Cl` [3-[2′-(3′-triethoxysilylpropyl)aminoethyl]-5,5-dimethylhydantoin hydrochloride], the chlorine loading worked out at 0.44% in series [1] (cotton swatches, 5% CLOROX 5 minutes) and 0.11% in series [1] (sand (Ottawa Sand Standard, 20-30 mesh), 50% CLOROX 15 minutes).
`CCO[Si](CCCN)(OCC)OCC` [3-aminopropyltriethoxysilane]: the “contact time required to reach in excess of 4 logs reduction” value in the series on Staphylococcus aureus (dryer-cured cotton textiles) is listed as 30 minutes. For the same molecule, in the series with Staphylococcus aureus (freshly chlorinated oven-dried cotton swatches, 15 minutes of contact), the “reduction of viable organisms” value is recorded as more than 4 logs. Further, in series [1] (cotton, dryer-prepared swatches, even when fresh), the “chlorine concentration of charged textile” value is not above 2500 ppm. Also, the “chlorine content of charged textile” value in series [1] (cotton, after approximately 14 days at 20° C.) is reported as 2300 ppm; in series [1] (cotton, immediately after drying) it was “up to 5000 ppm”.
As to `CCO[Si](C)(CCCN1C(=O)NC(C)(C)C1=O)OCC` [3-diethoxymethylsilylpropyl-5,5-dimethylhydantoin], in series [1] (cotton), the “chlorine loading on coated cotton swatches” value turned out to be 0.733%.
On the same count and under the same terms, the figure for `CCO[Si](CCCN1C(=O)C(C)(C)NC1(C)C)(OCC)OCC` [3-triethoxysilylpropyl-2,2,5,5-tetramethylimidazolidin-4-one] is 0.114%.
With `CO[Si](CCCN1C(=O)N(Cl)C(C)(C)C1=O)(OC)OC` [chlorinated silane compound, 1-chloro-3-trimethoxysilylpropyl-5,5-dimethylhydantoin], in series [2], the “complete inactivation of S. aureus” value is more than 4.9 logs.
As to `CCCCCCCCCCCCCCCCCC[N+](C)(C)CCC[Si](OC)(OC)OC.[Cl-]` [quaternary ammonium salt, dimethyloctadecyltrimethoxysilylpropylammonium chloride, reference compound], the “log reduction of S. aureus” value with S. aureus (ATCC 6538) stood at 1.8 log. In series [3], the “log reduction of E. coli” value is on record as 2.5 logs.
